Reference: patent US10730885B1, “Coumarin derivatives” (KING SAUD UNIVERSITY, priority 2019, dated 2020)
≈ marks a conversion by molar mass, not a printed value.

Tests used:
[1] = system: tested microorganisms; assay: MIC by two fold serial dilution, summary over the tested microorganisms; assay type: cell-based
Excerpt: (§1) The newly synthesized compounds were individually tested for their in vitro antimicrobial activity against the standard bacteria strains of American Type Culture Collection (ATCC), namely, Staphylococcus aureus ATCC 29213, Bacillus subtilis ATCC 6633, Bacillus megaterium ATCC 9885 (Gram-positive), Escherichia coli ATCC 2592 and Pseudomonas aeruginosa ATCC 27953 (Gram-negative). In addition, they were microbiologically tested against the locally isolated Saccharomyces cerevisiae (yeast) and the standard strain of Agricultural Research Service Culture Collection (NRRL) of the yeast like pathogenic fungus Candida albicans NRRL Y-477. The primary screening was carried out using the agar well diffusion method using nutrient agar (NA) medium and Sabourand dextrose agar (SDA) medium for pathological tested bacteria and yeast, respectively.
(§2) The bacteriostatic activity of the active compounds (having IZ>16 mm) was then evaluated using the two fold serial dilution technique. Two-fold serial dilutions of the tested compound solutions were prepared using the proper nutrient broth. The final concentration of the solutions were 1000, 500, 250 and 125 μg/ml. The tubes were then inoculated with the test organisms, grown in their suitable broth at 37° C. for 24 hours for tested microorganisms. (1×10^8 CFU/ml for bacteria and 1×10^6 CFU/ml of yeast), each 5 ml received 0.1 ml of the above inoculum and incubated at 37° C. for 24 h. The lowest concentration showing no growth was taken as the minimum inhibitory concentration (MIC).

[2] = DPPH microplate radical scavenging antioxidant assay; assay type: biochemical; settings: DPPH, 30 min, mean ± SD (n = 3)
In short: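 Compounds, starting at 200 μg/mL in a dilution series, incubated with 0.2 mM methanolic DPPH for 30 min in the dark at 25° C. Absorbance at 515 nm converted to percent antioxidant activity; IC50 from concentration series, triplicate, mean±SD (n=3).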

[3] = system: trypsin; assay: Proteinase inhibitory activity (trypsin/casein); assay type: biochemical; settings: for % Inhibition of proteinase activity: 250 μg/ml, mean ± SD (n = 3)
In short: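 Trypsin (0.06 mg) in 20 mM Tris-HCl pH 7.4 was preincubated 5 min with test sample (250 μg/ml solution), then 0.8% casein was added for 20 min. The reaction was stopped with perchloric acid, and supernatant absorbance was read at 280 nm after centrifugation. Percent inhibition relative to the uninhibited control was determined in triplicate.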

[4] = system: formaldehyde-induced paw oedema; assay: Formaldehyde-induced rat paw oedema; assay type: in vivo; settings: 2.5 mg/kg orally
Procedure: Testing was performed to determine formaldehyde-induced rat paw oedema (edema). For the formaldehyde-induced rat paw oedema (edema) test, female Wister albino rats (150-175 g) were used for determination of the anti-inflammatory activities. The rats were obtained from the animal house colony of the National Organization for Drug Control and Research (NODCAR), Egypt. The animals were kept in standard plastic cages in an air conditioned room at 22±3° C., 55±5% humidity and supplied with standard laboratory diet and water ad libitum. All animal experimental procedures were carried out according to the Ethics Committee of the National Research Centre, Cairo, Egypt and followed the guidelines of the National Institutes of Health, Guide for Care and Use of Laboratory Animals (1985).
The percentage protection against inflammation was calculated by using following formula:
[formula] where Vc is the mean percentage increase in paw volume in the control and Vd is the mean percentage increase in paw volume after injection of the test compound. Values were expressed as mean±standard error (S.E.). Comparisons between mean values were carried out using two-way analysis of variance (ANOVA), followed by Tukey Kramer multiple comparisons test for all acute toxicity study tests. […] was considered significant. Graph pad prism software (version 6) was used to carry out all statistical tests.

[5] = system: Saccharomyces cerevisiae (local isolate); assay: MIC by two fold serial dilution technique; assay type: cell-based; settings: read-out: Minimal Inhibitory Concentration (MIC) SC
Excerpt: as §1, §2

[6] = system: Pseudomonas aeruginosa ATCC 27953; assay: MIC by two fold serial dilution technique; assay type: cell-based; settings: ATCC27953, P. aeruginosa, read-out: Minimal Inhibitory Concentration (MIC) PA
Excerpt: as §1, §2

[7] = system: Candida albicans NRRL Y-477; assay: MIC by two fold serial dilution technique; assay type: cell-based; settings: NRRLY477, C. albicans, read-out: Minimal Inhibitory Concentration (MIC) CA
Excerpt: as §1, §2

[8] = system: Bacillus megaterium ATCC 9885; assay: MIC by two fold serial dilution technique; assay type: cell-based; settings: Priestia megaterium, ATCC9885; B. megaterium; read-out: Minimal Inhibitory Concentration (MIC) BM
Excerpt: as §1, §2

[9] = system: Bacillus subtilis ATCC 6633; assay: MIC by two fold serial dilution technique; assay type: cell-based; settings: ATCC6633, B. subtilis, read-out: Minimal Inhibitory Concentration (MIC) BS
Excerpt: as §1, §2

[10] = system: Staphylococcus aureus ATCC 29213; assay: MIC by two fold serial dilution technique; assay type: cell-based; settings: ATCC29213, S. aureus, read-out: Minimal Inhibitory Concentration (MIC) SA
Excerpt: as §1, §2

[11] = system: Escherichia coli ATCC 2592; assay: MIC by two fold serial dilution technique; assay type: cell-based; settings: ATCC2592, E. coli, read-out: Minimal Inhibitory Concentration (MIC) EC
Excerpt: as §1, §2

[12] = system: Pseudomonas aeruginosa ATCC 27953; assay: Agar well diffusion, primary antimicrobial screening; assay type: cell-based; settings: Pseudomonas aeruginosa, ATCC27953; P. aeruginosa ATCC 27953; 100 μL of 10 mg/ml in DMSO, 24 h; read-out: Inhibition Diameter Zone PA
In short: (§3)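 Seeded agar (bacteria 1×10^8 CFU/mL on nutrient agar; yeasts 1×10^6 CFU/ml on Sabouraud dextrose agar), 10 mm wells loaded with compound at 10 mg/ml in DMSO. Incubated 24 h at 37° C. Inhibition zone diameter (mm), mean of triplicate; DMSO negative control.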

[13] = system: Bacillus subtilis ATCC 6633; assay: as above; assay type: cell-based; settings: Bacillus subtilis, ATCC6633; B. subtilis ATCC 6633; 100 μL of 10 mg/ml in DMSO, 24 h; read-out: Inhibition Diameter Zone BS
In short: as §3

[14] = system: Escherichia coli ATCC 2592; assay: as above; assay type: cell-based; settings: Escherichia coli, ATCC2592; E. coli ATCC 2592; 100 μL of 10 mg/ml in DMSO, 24 h; read-out: Inhibition Diameter Zone EC
In short: as §3

[15] = system: Bacillus megaterium ATCC 9885; assay: as above; assay type: cell-based; settings: Priestia megaterium, ATCC9885; B. megaterium ATCC 9885; 100 μL of 10 mg/ml in DMSO, 24 h; read-out: Inhibition Diameter Zone BM
In short: as §3

[16] = system: Candida albicans NRRL Y-477; assay: as above; assay type: cell-based; settings: Candida albicans, NRRLY477; C. albicans NRRL Y-477; 100 μL of 10 mg/ml in DMSO, 24 h; read-out: Inhibition Diameter Zone CA
In short: as §3

| Structure (SMILES) | MIC ([1]; against gram-positive bacteria) [µg/mL] | IC50 [2] | melting point [°C] | % Inhibition of proteinase activity [3] [%] | in vivo anti-inflammatory activity [4] | in vitro anti-proteinase activity compared with aspirin [3] | MIC [5] [µg/mL] | MIC [6] [µg/mL] | MIC [7] [µg/mL] | MIC [8] [µg/mL] | MIC ([1]; against most of the tested microorganisms) [µg/mL] | MIC [9] [µg/mL] | MIC [10] [µg/mL] | MIC [11] [µg/mL] | zone of inhibition at 10000 µg/mL [12] [mm] | zone of inhibition at 10000 µg/mL [13] [mm] | zone of inhibition at 10000 µg/mL [14] [mm] | zone of inhibition at 10000 µg/mL [15] [mm] | zone of inhibition at 10000 µg/mL [16] [mm] |
| --- | --- | --- | --- | --- | --- | --- | --- | --- | --- | --- | --- | --- | --- | --- | --- | --- | --- | --- | --- |
| Cc1ccc2oc(=O)c3c(c2c1)OC(N)=C(C#N)C3c1ccc([N+](=O)[O-])cc1 (racemic) [Compound 5a, (±)-2-amino-9-methyl-4-(4-nitrophenyl)-5-oxo-4H,5H-pyrano[3,2-c]chromene-3-carbonitrile] | 500 to 1000 (≈ 1330 to 2660 µM) | — ((—): inactive (IC50 > 200 μg/mL)) | 259 to 261 | 17.38 ± 1.63 | – | – | – | – | – | – | – | – | – | – | – | – | – | – | – |
| Cc1ccc2oc(=O)c3c(c2c1)OC(N)=C(C#N)C3c1ccco1 (racemic) [Compound 5b, (±)-2-amino-4-(furan-2-yl)-9-methyl-5-oxo-4H,5H-pyrano[3,2-c]chromene-3-carbonitrile] | 500 to 1000 (≈ 1560 to 3120 µM) | — ((—): inactive (IC50 > 200 μg/mL)) | 251 to 253 | 74.68±3.01 | significant protection against inflammation | more potent | – | – | – | – | – | – | – | – | – | – | – | – | – |
| Cc1ccc2oc(=O)c3c(c2c1)OC(N=Cc1ccccc1)=C(C#N)C3c1ccc([N+](=O)[O-])cc1 (racemic) [Compound 8a, (±)-2-(benzylideneamino)-9-methyl-4-(4-nitrophenyl)-5-oxo-4H,5H-pyrano[3,2-c]chromene-3-carbonitrile] | – | — ((—): inactive (IC50 > 200 μg/mL)) | 208 to 209 | – | – | – | 500 (≈ 1080 µM) | 500 (≈ 1080 µM) | 500 (≈ 1080 µM) | 500 (≈ 1080 µM) | 250 to 500 (≈ 539 to 1080 µM) | – | – | – | – | – | – | – | – |
| COc1cc(C=NC2=C(C#N)C(c3ccc([N+](=O)[O-])cc3)c3c(c4cc(C)ccc4oc3=O)O2)cc(OC)c1OC (racemic) [Compound 8c, (±)-9-methyl-4-(4-nitrophenyl)-5-oxo-2-((3,4,5-trimethoxybenzylidene)amino)-4H,5H-pyrano[3,2-c]chromene-3-carbonitrile] | – | — ((—): inactive (IC50 > 200 μg/mL)) | 221 to 223 | 68.5±6.23 | – | more potent | 500 (≈ 903 µM) | 500 (≈ 903 µM) | 500 (≈ 903 µM) | 500 (≈ 903 µM) | – | 500 (≈ 903 µM) | 500 (≈ 903 µM) | 500 (≈ 903 µM) | – | – | – | – | – |
| COc1cc(C=NC2=C(C#N)C(c3ccco3)c3c(c4cc(C)ccc4oc3=O)O2)cc(OC)c1OC (racemic) [Compound 8d, (±)-4-(furan-2-yl)-9-methyl-5-oxo-2-((3,4,5-trimethoxybenzylidene)amino)-4H,5H-pyrano[3,2-c]chromene-3-carbonitrile] | – | 82.92 ± 3.30 µg/mL (≈ 166 µM) | 248 to 250 | 43.4 ± 1.52 | – | as potent | 1000 (≈ 2010 µM) | – | 1000 (≈ 2010 µM) | – | – | – | 1000 (≈ 2010 µM) | – | < 15 | < 15 | < 15 | < 15 | – |
| Cc1ccc2oc(=O)c3c(c2c1)OC(N=Cc1ccc(Cl)cc1Cl)=C(C#N)C3c1ccc([N+](=O)[O-])cc1 (racemic) [Compound 8e, (±)-2-((2,4-dichlorobenzylidene)amino)-9-methyl-4-(4-nitrophenyl)-5-oxo-4H,5H-pyrano[3,2-c]chromene-3-carbonitrile] | – | — ((—): inactive (IC50 > 200 μg/mL)) | 236 to 238 | 45.78 ± 1.62 | – | as potent | 500 (≈ 939 µM) | – | 500 (≈ 939 µM) | – | – | – | – | – | – | – | – | – | 20 |
| Cc1ccc2oc(=O)c3c(c2c1)OC(N=Cc1ccc(Cl)cc1Cl)=C(C#N)C3c1ccco1 (racemic) [Compound 8f, (±)-2-((2,4-dichlorobenzylidene)amino)-4-(furan-2-yl)-9-methyl-5-oxo-4H,5H-pyrano[3,2-c]chromene-3-carbonitrile] | 500 to 1000 (≈ 1050 to 2100 µM) | — ((—): inactive (IC50 > 200 μg/mL)) | > 300 | 26.83 ± 5.33 | – | – | 500 (≈ 1050 µM) | 1000 (≈ 2100 µM) | 500 (≈ 1050 µM) | 1000 (≈ 2100 µM) | – | 500 (≈ 1050 µM) | 500 (≈ 1050 µM) | 1000 (≈ 2100 µM) | – | – | 20 | 20 | – |
